For one assay, the system named is SK-MEL-28 melanoma cells. Nature of the assay: MTT cell viability, SK-MEL-28. Format: cell-based, human.
The subject of assay [1] is Mushroom tyrosinase. Nature of the assay: Tyrosinase mediated GSH depletion assay. It counts as biochemical. The conditions noted are these: 2 h incubation.
For a further assay, the system named is B16-F0 melanoma cells. Briefly: MTT cell viability, B16-F0. It counts as cell-based, murine. The following applies: read-out: IC50 (48 h) B16-F0.
Assay [2] has as its system amelanotic C32 melanoma cells. Nature of the assay: Reactive oxygen species. It counts as cell-based, human. The following applies: C32.
For assay [3], the system named is amelanotic C32 melanoma cells. Briefly: Intracellular GSH measurement, C32. It counts as cell-based, human. The following applies: for Intracellular GSH (ICG) depletion (2 h): 0.75 mM (750 μM).
The test system of assay [4] is melanocytic SK-MEL-28 melanoma cells. Nature of the assay: Reactive oxygen species. It counts as cell-based, human.
Assay [5] has the same test system. Nature of the assay: Intracellular GSH measurement, SK-MEL-28. Format: cell-based, human. The conditions noted are these: for Intracellular GSH (ICG) depletion (2 h): 0.75 mM (750 μM).
Assay [6] deals with Mushroom tyrosinase. It counts as biochemical. The conditions noted are these: pH 7.4; for Tyrosinase Kinetics AA (rate of AA oxidation): nM of AA per compound (μM) per tyrosinase (U/ml) per min; for Tyrosinase Kinetics NADH (rate of NADH oxidation): nM of NADH per compound (μM) per tyrosinase (U/ml) per min.
Setting [7] is: Homo sapiens, SK-MEL-28, 48 h, read-out: IC50 (48 h) SK-MEL-28.
Where [8] appears, read: read-out: IC50 (48 h) SK-MEL-28, 48 h, MTT.

Read-outs that look alike come from different tables or passages of the source.

As for `COc1ccccc1O` [2-hydroxyanisole], the IC50 in the assay with SK-MEL-28 melanoma cells (setting [7]) turned out to be 2.2 mM; in the assay on B16-F0 melanoma cells (Mus musculus, B16F0, 48 h) it was 0.051 mM. Also, the “% GSH depletion (2 h) Tyrosinase/O2” value in the assay with Mushroom tyrosinase [1] turned out to be 25±2%.
Regarding `CC(=O)c1ccc(O)cc1` [4-hydroxyacetophenone], the IC50 worked out at 8 mM with SK-MEL-28 melanoma cells (setting [7]) and 3 mM in the assay with B16-F0 melanoma cells (Mus musculus, B16F0, 48 h).
`CCOC(=O)c1ccc(OC)cc1` [E4MB, ethyl 4-methoxybenzoate]: in the assay with SK-MEL-28 melanoma cells (Homo sapiens, SK-MEL-28, 48 h, read-out: IC50 (48 h) SK-MEL-28 cells), the IC50 came to 0.75 mM. In addition, the “fold decrease in toxicity when compared to 4-HEB” value with SK-MEL-28 melanoma cells (from IC50 (48 h), SK-MEL-28) is given as 10 fold. Further, the “Fold ROS formation (40 min) at IC50” value in assay [2] (750 μM, 40 min) was 4 Fold; in assay [4] (750 μM, 40 min, SK-MEL-28) it was 9 Fold. The ROS formation result in assay [2] (750 μM-5 mM) is reported as “negligible”; in assay [4] (750 μM-5 mM, SK-MEL-28, in comparison to 4-HEB), “significantly lower”. Also, the “Intracellular GSH (ICG) depletion (2 h)” value in assay [3] is given as 6%; in assay [3] (listed as C00002), 6%; in assay [5], 10%; in assay [5] (listed as C00002), 10%. Moreover, the “Intracellular GSH depletion (2 h)” value in assay [3] (1 mM) was found to be 7%; in assay [3] (1.5 mM), 10%; in assay [5] (1 mM), 13%; in assay [5] (1.5 mM) it was 15%. Besides, in the assay on Mushroom tyrosinase [1] (listed as C00002), the “% GSH depletion (2 h) Tyrosinase/O2” value worked out at 5±3%. Moreover, the “Tyrosinase Kinetics AA (rate of AA oxidation)” value in the assay with Mushroom tyrosinase [6] was found to be 8 nM; with Mushroom tyrosinase [6] (listed as C00002), 8 nM ^**. Also, the figures for the “Tyrosinase Kinetics NADH (rate of NADH oxidation)” value in the assay on Mushroom tyrosinase [6] and in the assay with Mushroom tyrosinase [6] (listed as C00002) were 50 nM and 50 nM ^**, respectively.
Turning to `Cc1ccccc1O` [2-hydroxytoluene], the IC50 was determined as 3.2 mM in the assay on SK-MEL-28 melanoma cells (setting [7]) and 3.2 mM with B16-F0 melanoma cells (Mus musculus, B16F0, 48 h).
`OCc1cccc(O)c1` [3-hydroxybenzyl alcohol]: the IC50 came to 5 mM with SK-MEL-28 melanoma cells (setting [7]) and 4.6 mM with B16-F0 melanoma cells (Mus musculus, B16F0, 48 h). In addition, the “% GSH depletion (2 h) Tyrosinase/O2” value with Mushroom tyrosinase [1] was found to be 29±3%.
Take 2-hydroxyacetophenone: the IC50 with SK-MEL-28 melanoma cells (setting [8]) worked out at 4 mM.
On to `O=C(O)c1ccccc1O` [2-hydroxybenzoic acid], for which the IC50 in the assay with SK-MEL-28 melanoma cells (setting [7]) worked out at 5 mM; with B16-F0 melanoma cells (Mus musculus, B16F0, 48 h), 5.2 mM. For the same molecule, the “% GSH depletion (2 h) Tyrosinase/O2” value in the assay with Mushroom tyrosinase [1] turned out to be 0%.
For `CC(=O)c1cccc(O)c1` [3-hydroxyacetophenone], the IC50 in the assay on SK-MEL-28 melanoma cells (setting [8]) came to 2 mM; in the assay on B16-F0 melanoma cells (48 h, MTT), 1.4 mM.
In the case of `Cc1ccc(O)cc1` [4-hydroxytoluene], the IC50 in the assay on SK-MEL-28 melanoma cells (setting [7]) came to 2 mM.
As for `COc1ccccc1` [Anisole, anisole, reference compound], the IC50 in the assay with SK-MEL-28 melanoma cells (setting [7]) was more than 12 mM; with B16-F0 melanoma cells (Mus musculus, B16F0, 48 h) it was more than 5 mM. The “% GSH depletion (2 h) Tyrosinase/O2” value in the assay on Mushroom tyrosinase [1] is reported as 21±3%.
Taken in the same sequence, the figures for `OCc1ccccc1` [Benzyl alcohol, benzyl alcohol, reference compound] were more than 10 mM, 8 mM and 0%.
Taken in the same sequence, the figures for `CCOC(=O)c1ccccc1` [Ethyl benzoate, ethyl benzoate, reference compound] were 7 mM, more than 10 mM and 26±3%.

(Values after PMC2821678 (Chemico-biological interactions, 2009).)
